“Also recorded” adds a separate entry of the source. No end group written: not given here.
Experiments:
[1] = system: Caco-2 monolayers; assay: FITC-dextran translocation assay; format: cell-based, human; details: for Paracellular permeability of FITC-dextran (Papp A-B): Caco-2 monolayers 21 days, each CPP at a concentration without cytotoxicity, apical, 1 h, 37 °C, pH 7.4, then 1 mg/ml FITC-dextran 4 for 30 min, fluorescence, n = 3; for Paracellular permeability (TEER and FITC-dextran assays collectively) / FITC-dextran translocation: Caco-2 monolayers; for Paracellular permeability (TEER and FITC-dextran assays collectively): in the concentrations tested; for FITC-dextran translocation: CPP 100 µM
Method: (§1) For Fluorescein Isothiocyanate (FITC)-Dextran permeability experiments, Caco-2 monolayers differentiated for 21 days were transferred to 12-well plates containing 1.5 ml phenol red free DMEM media (pH 7.4) in the basal compartments. For the treatment, medium in the apical compartment was replaced by 0.5 ml phenol red free DMEM medium containing different concentrations of CPPs, and the plates were incubated at 37 °C for 1 h. Post treatment, inserts were transferred to a new 12-well plate containing 1.5 ml fresh phenol red free DMEM and the apical medium was replaced by medium containing 1 mg/ml FITC-dextran 4 (Sigma-Aldrich). The incubation with the permeability marker lasted for 30 min. Samples were collected from the basolateral compartments post incubation and fluorescence was measured using multi-well fluorescent plate reader (Synergy; excitation wavelength: 490 nm, emission wavelength: 520 nm). The concentration of FITC-dextran in the samples was calculated by comparing the relative fluorescence values to the FITC-dextran standard curve. The apparent permeability coefficient (Papp, cm/s) was calculated according to Eq. 1. Papp=dQ/dt×1/(A×C0), (1) Where dQ/dt is the drug permeation rate (μg/s); a is the surface area of the inserts (cell monolayer) (cm^2); and C0 is the initial concentration at the apical side (μg/ml).

[2] = system: Caco-2 monolayers; details: cited from earlier work
Method: (§2) In the present work we systematically screened for effective CPPs that promote intestinal permeation through paracellular route and have negligible or no harmful effects against human epithelial cells and gut microbial strains. […] The results from the cytotoxicity and cell viability assays were in concordance except for RRL helix and PN159 at 5 µM. This minor difference most likely has to do with the sensitivity of the assay. The reducing capacity of the cells (as measured by AlamarBlue) is not the same as membrane integrity (as measured by Cytotoxic Red).

[3] = system: Caco-2 cells; assay: AlamarBlue cell viability assay; format: cell-based, human; details: for Cell viability (AlamarBlue, % live cells vs control): CPP 5 µM, 1 h treatment (legend; method says 2 h), 37°C, fluorescence 560/590 nm, n = 3; for Cell toxicity and viability: CPP 50 µM, Cytotox Red and AlamarBlue assays
Method: (§3) Caco-2 cells were seeded (6 × 10^3 cells/well) in Corning™ Costar™ 96-Well, Cell Culture-Treated, Flat-Bottom Microplate and grown at 37°C with 5% CO2 until reaching confluence. For alamarBlue cell viability staining, cells were exposed to treatments (DMEM + AlamarBlue (10 µL) + CPPs) at different concentrations and incubated for 2 h at 37°C with 5% CO2. Fluorescence was measured with microplate reader Synergy™ H1 BioTek; (excitation wavelength: 560 nm, emission wavelength: 590 nm) and a curve of Relative Fluorescence Units (RFU) against different concentrations of CPPs was plotted.

[4] = system: 10 commensal gut microbial strains; assay: Broth microdilution antimicrobial assay, panel summary; format: cell-based; details: range over the strains that were totally inhibited; mGAM, 37 °C, 24 h
Method: (§4) Gut commensal microbial strains used in this study (Table 2) were purchased from […] (ATCC) and DSMZ, Germany. The growth and screening experiments were performed in modified Gifu Anaerobic Medium (mGAM) (HyServe GmbH and Co.) as all the strains could grow well in this media. mGAM was pre-reduced for a minimum of 1 day in the anaerobic chamber (Coy laboratory products Inc.) before use.
(§5) The antimicrobial effects of CPPs were determined by performing microbroth dilution method. The overnight cultures of the strains were diluted 100-fold in mGAM broth and 100 µL of the diluted cultured were distributed in the 96-well microplate. Next, 100 µL of CPPs in their respective concentrations were added to respective wells. Plates were incubated aerobically (Escherichia coli Nissle, Escherichia coli K12, and Saccharomyces boulardii) or anaerobically (rest of the strains) at 37 °C for 24 h with or without shaking, respectively. Reading of each plate was performed by measuring the optical density (OD) at 600 nm in a microplate reader (Synergy™ H1 BioTek). The final absorbance values were normalized and represented as values between 0 and 1 as a heat map, where 0 being full inhibition and 1 being no inhibition. The MIC was determined as the minimum concentration of the CPPs at which no significant growth of the strain was observed as compared to medium only (blank).

[5] = system: Caco-2 cells; format: cell-based; details: CPP 1, 5, 10, 50, 100 µM in DMEM, 1 h treatment (legend; method says 2 h), 37°C, Incucyte imaging, n = 2
Method: as §3, with “For alamarBlue cell viability staining, cells were exposed to treatments (DMEM + AlamarBlue (10 µL) + CPPs) at different concentrations and incubated for 2 h at 37°C with 5% CO2.” left out
[…] The cells were then imaged using the Incucyte® Live-Cell analysis instrument. Cytotox Red dye dilution: The dye was diluted to a stock concentration of 100 µM in PBS. This was further diluted in full media to yield a final concentration of 250 nM before adding to the cells.

[6] = system: Escherichia coli K12 MG 1655; assay: Broth microdilution antimicrobial assay; format: cell-based; details: microbroth dilution in mGAM, aerobic with shaking, 37 °C, 24 h, OD600, CPP 0.01-100 µM
Method: as §4, §5

[7] = system: Escherichia coli Nissle 1917 (Mutaflor); assay: Broth microdilution antimicrobial assay; format: cell-based; details: microbroth dilution in mGAM, aerobic with shaking, 37 °C, 24 h, OD600, CPP 0.01-100 µM
Method: as §4, §5

[8] = system: Bacteroides thetaiotaomicron DSM 2079; assay: Broth microdilution antimicrobial assay; format: cell-based; details: B. thetaiotaomicron; microbroth dilution in mGAM, anaerobic, 37 °C, 24 h, OD600; CPP 0.01-100 µM
Method: as §4, §5

[9] = system: Latilactobacillus sakei ATCC 15521; assay: Broth microdilution antimicrobial assay; format: cell-based; details: microbroth dilution in mGAM, anaerobic, 37 °C, 24 h, OD600, CPP 0.01-100 µM
Method: as §4, §5

[10] = system: Clostridium bolteae DSM 29485; assay: Broth microdilution antimicrobial assay; format: cell-based; details: microbroth dilution in mGAM, anaerobic, 37 °C, 24 h, OD600, CPP 0.01-100 µM
Method: as §4, §5

[11] = system: Bifidobacterium adolescentis DSM 20083; assay: Broth microdilution antimicrobial assay; format: cell-based; details: microbroth dilution in mGAM, anaerobic, 37 °C, 24 h, OD600, CPP 0.01-100 µM
Method: as §4, §5

[12] = system: Bifidobacterium longum ATCC 15697; assay: Broth microdilution antimicrobial assay; format: cell-based; details: microbroth dilution in mGAM, anaerobic, 37 °C, 24 h, OD600, CPP 0.01-100 µM
Method: as §4, §5

[13] = system: Lactobacillus gasseri DSM 20077; assay: Broth microdilution antimicrobial assay; format: cell-based; details: microbroth dilution in mGAM, anaerobic, 37 °C, 24 h, OD600, CPP 0.01-100 µM
Method: as §4, §5

[14] = system: Bacteroides vulgatus ATCC 8482; assay: Broth microdilution antimicrobial assay; format: cell-based; details: B. vulgatus; microbroth dilution in mGAM, anaerobic, 37 °C, 24 h, OD600; CPP 0.01-100 µM
Method: as §4, §5

[15] = system: Caco-2 monolayers; assay: Transepithelial electrical resistance (TEER) of Caco-2 monolayers; format: cell-based, human; details: for Change in TEER values after 1 h treatment with CPPs: Caco-2 monolayers differentiated 21 days, each CPP at a concentration without cytotoxicity, 37 °C, n = 3, p < 0.01 vs no treatment; for Reduction in TEER: Caco-2 monolayers, CPP 100 µM
Method: Transepithelial electrical resistance (TEER) represents the barrier integrity and permeability of the Caco-2 monolayers. To measure TEER, cells were seeded and grown on 12-well cell culture inserts ([…], 1.1 cm, polyethylene terephthalate membrane, cellQART) for a period of 21 days. TEER was measured using Millicell® ERS-2 Voltohmeter (MERS00002), combined with a STX-04 electrode. Final TEER values were expressed relative to the surface area of the inserts (ΩTotal - ΩInsert X cm^2). TEER values were monitored every day from day 14 until day 21, before, and after permeability experiments. On day 21 of differentiation, TEER values of the monolayers were 600 ± 50 Ω X cm^2 (mean ± SD; n = 48).
as §1

[16] = system: Saccharomyces cerevisiae; parameters: method as in Palm et al in 2006; details: ref Palm et al in 2006; cited from earlier work
[17] = rats, without damaging the epithelial barrier integrity, ref Kamei et al., 2008, Morishita et al., Bocsik et al., 2019; cited from earlier work
Method: as §2

Molecule: CC(C)C[C@H](NC(=O)[C@H](C)NC(=O)[C@H](CCCCN)NC(=O)[C@H](CC(C)C)NC(=O)[C@H](C)NC(=O)[C@H](CC(C)C)NC(=O)[C@H](CCCCN)NC(=O)[C@H](CC(C)C)NC(=O)[C@H](C)NC(=O)[C@H](CC(C)C)NC(=O)[C@@H](N)CCCCN)C(=O)N[C@@H](CCCCN)C(=O)N[C@@H](C)C(=O)N[C@@H](C)C(=O)N[C@@H](CC(C)C)C(=O)N[C@@H](CCCCN)C(=O)N[C@@H](CC(C)C)C(=O)N[C@@H](C)C(N)=O [PN159]
- Paracellular permeability of FITC-dextran (Papp A-B) [1]: highest paracellular permeability
- Paracellular permeability of Caco-2 monolayers via tight junction modulation ([2]; CPP 3 µM, ref Bocsik et al in 2019): significantly improve paracellular permeability of Caco-2 monolayers
- Cell viability (AlamarBlue, % live cells vs control) [3]: no significant toxic effect; also recorded: no significant effect on cell viability
- MICs over the totally inhibited strains of the panel [4]: 1 to 50 µM
- Cytotoxicity (Cytotox Red dye staining, dead cells) [5]: toxic at 5 µM; also recorded: Toxicity from 5 μM
- Minimum inhibitory concentration (MIC) [6]: 5 µM
- Minimum inhibitory concentration (MIC) [7]: 50 µM
- Minimum inhibitory concentration (MIC) [8]: 10 µM
- Minimum inhibitory concentration (MIC) [9]: 1 µM
- Minimum inhibitory concentration (MIC) [10]: 1 µM
- Minimum inhibitory concentration (MIC) [11]: 10 µM
- Minimum inhibitory concentration (MIC) [12]: 1 µM
- Minimum inhibitory concentration (MIC) [13]: 5 µM
- Minimum inhibitory concentration (MIC) [14]: 10 µM

Molecule: KWFKIQMQIRRWKNKR [Penetramax]
- Paracellular permeability of FITC-dextran (Papp A-B) [1]: highest paracellular permeability
- Cell toxicity and viability [3]: without having significant effects on cell toxicity and viability
- Cytotoxicity (Cytotox Red dye staining, dead cells) [5]: significant toxicity only at the highest concentration tested (100 µM)
- Minimum inhibitory concentration (MIC) [9]: 100 µM
- Minimum inhibitory concentration (MIC) [10]: 100 µM
- Minimum inhibitory concentration (MIC) [12]: 10 µM

Molecule: LLIILRRRIRKQAHAHSK [pVEC, Protein derived cell-penetrating peptide]
- Change in TEER values after 1 h treatment with CPPs [15]: significant reduction in TEER values
- Paracellular permeability (TEER and FITC-dextran assays collectively) [1]: did not exhibit paracellular permeability
- Concentration without inhibition of growth [16]: > 25 µM

Molecule: RQIKIWFQNRRMKWKK [Penetratin, Protein derived cell-penetrating peptide]
- Change in TEER values after 1 h treatment with CPPs [15]: significant reduction in TEER values
- Permeabilizing effect in the Caco-2 monolayer setup [1]: no permeabilizing effect
- Paracellular permeability (TEER and FITC-dextran assays collectively) [1]: did not exhibit paracellular permeability
- Paracellular permeability of Caco-2 monolayers [2]: did not improve paracellular permeability
- Concentration without inhibition of growth [16]: > 25 µM

Molecule: RRLRRLLRRLRRLLRRLR [RRL helix]
- Paracellular permeability of FITC-dextran (Papp A-B) [1]: highest paracellular permeability
- Cell viability (AlamarBlue, % live cells vs control) [3]: no significant toxic effect
- MICs over the totally inhibited strains of the panel [4]: 5 to 100 µM
- Cytotoxicity (Cytotox Red dye staining, dead cells) [5]: toxic at 5 µM; also recorded: Toxicity from 5 μM
- Minimum inhibitory concentration (MIC) [7]: 50 µM
- Minimum inhibitory concentration (MIC) [9]: 50 µM
- Minimum inhibitory concentration (MIC) [10]: 10 µM
- Minimum inhibitory concentration (MIC) [11]: 100 µM
- Minimum inhibitory concentration (MIC) [12]: 5 µM

Molecule: RRRRRRRR [R8, Synthetic oligoarginine cell-penetrating peptide]
- Reduction in TEER [15]: did not observe reduction in TEER
- FITC-dextran translocation [1]: did not observe reduction in TEER or elevated FITC-dextran translocation
- Paracellular permeability (TEER and FITC-dextran assays collectively) [1]: did not exhibit paracellular permeability
- Intestinal absorption of therapeutic peptides [17]: effective tools at improving intestinal absorption of therapeutic peptides

Molecule: RRRRRRRRR [R9, Synthetic oligoarginine cell-penetrating peptide]
- Reduction in TEER [15]: did not observe reduction in TEER
- FITC-dextran translocation [1]: did not observe reduction in TEER or elevated FITC-dextran translocation
- Paracellular permeability (TEER and FITC-dextran assays collectively) [1]: did not exhibit paracellular permeability
- Intestinal absorption of therapeutic peptides [17]: effective tools at improving intestinal absorption of therapeutic peptides

Molecule: RWFKIQMQIRRWKNKK [Shuffle]
- Paracellular permeability of FITC-dextran (Papp A-B) [1]: highest paracellular permeability
- Cell toxicity and viability [3]: without having significant effects on cell toxicity and viability
- Cytotoxicity (Cytotox Red dye staining, dead cells) [5]: significant toxicity only at the highest concentration tested (100 µM)
- Minimum inhibitory concentration (MIC) [9]: 100 µM
- Minimum inhibitory concentration (MIC) [10]: 50 µM
- Minimum inhibitory concentration (MIC) [12]: 10 µM

Molecule: YGRKKRRQRRR [Tat]
- Permeabilizing effect in the Caco-2 monolayer setup [1]: no permeabilizing effect
- Paracellular permeability (TEER and FITC-dextran assays collectively) [1]: did not exhibit paracellular permeability

— PMC9666501, “Screening for effective cell-penetrating peptides with minimal impact on epithelial cells and gut commensals in vitro” (Frontiers in Pharmacology, 2022)
